Laboratory results published in patent US20250163051A1, “PYRIMIDO AROMATIC RING COMPOUND AND USE THEREOF IN DRUG” (SUNSHINE LAKE PHARMA CO., LTD., priority 2022, published 2025).
Where two headings read alike, the source gives them in different places.

Key:
in vitro = conditions: human
Method: (§5) Purpose: HEK-Blue™ hTLR7 and HEK-Blue™ hTLR8 cells were used to detect the agonist and cytotoxic activities of compounds against hTLR7 and hTLR8.
(§6) The experimental steps were as shown below: • 1) Preparation of compound: The compound was prepared into a 20 mM stock solution with DMSO, and then the stock solution was diluted 3-fold in a gradient and added to a 96-well plate, for a total of 10 concentrations, with duplicate wells for each concentration. For negative control wells, 0.5 μL DMSO was added to each well. The final DMSO concentration was 0.5%. • 2) HEK-Blue™ hTLR7 or HEK-Blue™ hTLR8 cells were suspended in culture medium and then seeded into 96-well plates containing compounds at a cell count of 50,000 per well. The compounds and cells were incubated for 24 h at 37° C., 5% Co2. • 3) QUANTI-Blue was used for the detection solution: to a mixture of 1 mL of QB reagent and 1 mL of QB buffer was added 98 mL of sterile water, the mixture was mixed and dissolved, and then placed at room temperature for 10 min. • 4) Activity test of the compound: 20 μL of the culture supernatant in step 2) was added to each well of a 96-well plate containing 180 μL of QUANTI-Blue detection solution. After incubation at 37° C. for 1 h, the absorbance at 650 nm (OD650) was detected using a multifunctional microplate reader Flextation III. • 5) Detection of cell activity: The chemiluminescent signal (RLU) was detected using the multifunctional microplate reader Flextation III according to the instructions of Celltiter-Glo. • 6) Data analysis
(§7) Detection of cell activity: The calculation formula for cell activity % is as follows.
(§8) The cell activity % values were analyzed using GraphPad Prism software, and the compound dose-effect curves were fitted to calculate the CC50 values of the compounds.
(§9) Cell activity %=RLU compound/RLU DMSO Control*100%

hTLR7 = target: T1, hTLR7 (Homo sapiens, UniProt Q9NYK1); experiment: Agonistic activity on human TLR7 in HEK-Blue hTLR7 cells (QUANTI-Blue); format: cell-based; conditions: 24 h incubation, OD650, read-out: hTLR 7 EC50
T1 construct: expressed in transfected cells; host or cells: HEK-Blue hTLR7 cells
T1 sequence (Q9NYK1 27-1049): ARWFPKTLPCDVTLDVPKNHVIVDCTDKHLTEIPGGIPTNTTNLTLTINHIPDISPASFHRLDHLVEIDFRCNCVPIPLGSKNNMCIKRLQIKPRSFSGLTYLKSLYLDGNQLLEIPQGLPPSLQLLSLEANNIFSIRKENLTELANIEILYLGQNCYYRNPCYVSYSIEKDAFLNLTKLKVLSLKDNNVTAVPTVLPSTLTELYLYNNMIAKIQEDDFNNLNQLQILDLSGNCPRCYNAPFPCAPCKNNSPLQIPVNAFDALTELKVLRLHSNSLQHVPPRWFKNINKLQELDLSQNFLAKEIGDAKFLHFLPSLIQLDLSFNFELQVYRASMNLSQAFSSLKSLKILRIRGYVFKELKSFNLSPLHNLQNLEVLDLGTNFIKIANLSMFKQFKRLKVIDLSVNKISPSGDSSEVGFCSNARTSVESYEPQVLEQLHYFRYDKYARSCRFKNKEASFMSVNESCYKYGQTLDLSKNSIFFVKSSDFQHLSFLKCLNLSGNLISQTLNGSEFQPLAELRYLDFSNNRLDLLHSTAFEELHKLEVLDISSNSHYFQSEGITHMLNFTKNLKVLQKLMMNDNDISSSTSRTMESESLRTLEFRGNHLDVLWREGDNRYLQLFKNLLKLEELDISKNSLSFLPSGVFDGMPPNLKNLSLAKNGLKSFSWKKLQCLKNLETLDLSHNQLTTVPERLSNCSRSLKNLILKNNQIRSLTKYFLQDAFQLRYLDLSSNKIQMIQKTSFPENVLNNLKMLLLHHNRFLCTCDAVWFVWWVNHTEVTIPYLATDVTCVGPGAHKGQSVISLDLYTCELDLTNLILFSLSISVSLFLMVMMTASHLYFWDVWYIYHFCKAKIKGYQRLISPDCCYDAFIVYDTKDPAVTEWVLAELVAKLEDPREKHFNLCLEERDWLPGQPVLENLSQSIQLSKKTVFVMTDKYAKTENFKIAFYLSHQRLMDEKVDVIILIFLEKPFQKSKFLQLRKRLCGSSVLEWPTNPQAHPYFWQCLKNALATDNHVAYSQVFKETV
Method: as §5, §6
(§10) Activity of compounds: OD650 values were analyzed using GraphPad Prism software, and the compound dose-effect curves were fitted to calculate the EC50 values of the compounds.

hTLR8 = target: T2, hTLR8 (Homo sapiens, UniProt Q9NR97); experiment: Agonistic activity on human TLR8 in HEK-Blue hTLR8 cells (QUANTI-Blue); format: cell-based; conditions: 24 h incubation, OD650, read-out: hTLR 8 EC50
T2 construct: expressed in transfected cells; host or cells: HEK-Blue hTLR8 cells
T2 sequence (Q9NR97 27-1041): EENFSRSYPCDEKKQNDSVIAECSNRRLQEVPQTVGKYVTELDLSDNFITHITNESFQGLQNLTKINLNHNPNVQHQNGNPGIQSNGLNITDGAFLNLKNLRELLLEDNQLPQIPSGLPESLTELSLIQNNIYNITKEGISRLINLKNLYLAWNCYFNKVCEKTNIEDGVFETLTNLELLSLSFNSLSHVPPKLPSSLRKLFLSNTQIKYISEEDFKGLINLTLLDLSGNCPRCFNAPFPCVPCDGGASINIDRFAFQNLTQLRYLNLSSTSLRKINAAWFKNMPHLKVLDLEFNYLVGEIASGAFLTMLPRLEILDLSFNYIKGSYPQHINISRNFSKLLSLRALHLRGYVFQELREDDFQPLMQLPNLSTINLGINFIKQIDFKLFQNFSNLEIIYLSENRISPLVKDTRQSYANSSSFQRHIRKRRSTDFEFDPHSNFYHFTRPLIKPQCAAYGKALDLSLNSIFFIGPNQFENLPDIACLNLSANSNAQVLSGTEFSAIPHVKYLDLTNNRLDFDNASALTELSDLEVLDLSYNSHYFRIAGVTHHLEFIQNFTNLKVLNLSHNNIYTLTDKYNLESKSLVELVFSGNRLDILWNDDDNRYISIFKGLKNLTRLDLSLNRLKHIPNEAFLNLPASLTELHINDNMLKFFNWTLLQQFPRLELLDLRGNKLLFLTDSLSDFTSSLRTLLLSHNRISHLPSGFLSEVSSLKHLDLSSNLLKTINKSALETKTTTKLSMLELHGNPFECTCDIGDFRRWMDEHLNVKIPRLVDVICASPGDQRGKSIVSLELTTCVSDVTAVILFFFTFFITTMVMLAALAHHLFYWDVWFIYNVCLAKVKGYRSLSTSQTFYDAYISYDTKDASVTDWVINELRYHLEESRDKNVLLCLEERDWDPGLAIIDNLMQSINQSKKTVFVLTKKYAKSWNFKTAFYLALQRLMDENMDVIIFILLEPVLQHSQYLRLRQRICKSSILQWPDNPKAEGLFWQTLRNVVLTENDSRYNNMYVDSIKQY
Method: as §5, §6, §10

CYP2C19 = target: T3, CYP2C19 (Homo sapiens, UniProt P33261); experiment: Inhibition of human liver microsomal CYP2C19; format: in vitro ADME; conditions: human liver microsomes, 10 μM test substance; read-out: Relative inhibition rate (%) CYP2C19
T3 construct: from tissue; host or cells: human liver microsomes
Method: (§1) Experimental purpose: The inhibitory effects of the test compounds on the major metabolizing enzymes CYP1A2, CYP2C19, CYP2D6 and CYP3A4 in microsomes were evaluated using the human liver microsomal system. Experimental method: The test substance was incubated with a suspension of human liver microsomes containing cytochrome P450 enzymes CYP1A2, CYP2C19, CYP2D6 and CYP3A4 at a concentration of 10 μM in the final incubation system. The known substrates were metabolized by the corresponding single enzymes to generate specific metabolites, and the metabolites were determined by UPLC-MS/MS method. The relative inhibition rate (%) was calculated by the percentage reduction of metabolite production by the test compound and solvent DMSO in the same time period. N is the concentration value of the probe substrate metabolite and it is assumed that the […] with or without inhibitor at 0 min is 0. N+inh is the metabolite concentration in the group with inhibitor, and Nveh is the metabolite concentration in the group without inhibitor. The results of the inhibition test of the compounds of the present invention on human liver microsomal CYP enzymes are shown in Table C.

CYP1A2 [1] = target: T4, CYP1A2 (Homo sapiens, UniProt P05177); experiment: Inhibition of human liver microsomal CYP1A2; format: in vitro ADME; conditions: human liver microsomes, 10 μM test substance; read-out: Relative inhibition rate (%) CYP1A2
T4 construct: from tissue; host or cells: human liver microsomes
T4 sequence (P05177 1-516): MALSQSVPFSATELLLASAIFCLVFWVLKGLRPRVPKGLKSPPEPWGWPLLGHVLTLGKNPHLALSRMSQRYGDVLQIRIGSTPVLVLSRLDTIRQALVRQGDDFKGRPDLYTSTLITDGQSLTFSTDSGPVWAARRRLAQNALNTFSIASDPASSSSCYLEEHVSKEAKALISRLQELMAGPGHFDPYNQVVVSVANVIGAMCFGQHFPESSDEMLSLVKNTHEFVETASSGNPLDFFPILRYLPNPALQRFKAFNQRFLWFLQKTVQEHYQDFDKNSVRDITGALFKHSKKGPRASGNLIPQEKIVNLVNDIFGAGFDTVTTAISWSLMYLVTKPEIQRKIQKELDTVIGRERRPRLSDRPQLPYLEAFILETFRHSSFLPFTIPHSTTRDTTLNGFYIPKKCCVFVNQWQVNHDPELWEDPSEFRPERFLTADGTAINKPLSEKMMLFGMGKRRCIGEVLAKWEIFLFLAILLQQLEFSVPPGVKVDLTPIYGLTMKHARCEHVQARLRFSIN
Method: as §1

[2] = Cell toxicity (Celltiter-Glo) in HEK-Blue hTLR8 cells; conditions: human
Method: as §5, §6, §7, §8, §9

CYP3A4 [3] = target: T5, CYP3A4 (Homo sapiens, UniProt P08684); experiment: Inhibition of human liver microsomal CYP3A4; format: in vitro ADME; conditions: human liver microsomes, 10 μM test substance
T5 construct: from tissue; host or cells: human liver microsomes
Method: as §1

CYP2D6 = target: T6, CYP2D6 (Homo sapiens, UniProt P10635); experiment: Inhibition of human liver microsomal CYP2D6; format: in vitro ADME; conditions: human liver microsomes, 10 μM test substance; read-out: Relative inhibition rate (%) CYP2D6
T6 construct: from tissue; host or cells: human liver microsomes
Method: as §1

hERG channel = target: T7, hERG channel (Homo sapiens, UniProt Q12809); experiment: hERG channel current in HEK293 cells, automated patch clamp; format: cell-based; conditions: HEK-293 cells stably expressing hERG, whole-cell patch clamp, 0.3-30 μM
T7 construct: expressed in transfected cells; host or cells: HEK-293 cells stably expressing hERG
Method: Test 2: Detection of the Effect of Compounds on hERG Channel Currents Stably Expressed in HEK293 Cells Using Automated Patch Clamp
Experimental purpose: The concentration-effect relationship of the blocking effect of the compounds on hERG channels was determined using the patch clamp technique and HEK-293 cells stably expressing hERG channels to evaluate their risk of inhibitory effect on cardiac hERG potassium channels.
Experimental method: hERG cells were clamped using the patch clamp technique to form a high-resistance seal and then the membrane was broken. The whole-cell recording mode was used to record the hERG current. Each drug concentration was set to be administered twice for at least 5 minutes. The test concentrations were 0.3 μM, 1 μM, 3 μM, 10 μM and 30 μM, and the changes of the test compounds on hERG current were observed.

CYP2B6 = experiment: Induction of CYP2B6 in frozen human hepatocytes; format: in vitro ADME; conditions: 72 h induction, concentration and readout not stated; for CYP2B6 Induction percentage relative to positive control (%): positive control Phenobarbital
Method: (§2) Experimental purpose: Using frozen human hepatocytes as the test system, the induction effects of the test substances on CYP1A2, CYP2B6 and CYP3A4 were evaluated from two aspects of enzyme activity and mRNA level.
(§3) Experimental method: 24 hours after cell plating, induction was started by adding medium containing the test compound (test concentrations were 10, 1, and 0.1 μM), and fresh drug-containing medium was replaced every 24 hours. After 72 hours of induction, the medium was replaced with medium containing CYP1A2, CYP2B6, and CYP3A4 specific substrates for 30 minutes of incubation. 100 μL was taken for treatment, and the labeled metabolites of the substrates were detected to evaluate the enzyme activity level. Finally, the cells were lysed and reverse transcribed, and the expression levels of CYP1A2, CYP2B6 and CYP3A4 genes in the cells were evaluated by real-time quantitative PCR.
(§4) The induction fold of the test compound compared with the blank control and the induction percentage of the test compound compared with the positive control were used as the basis for evaluating the induction potential of the test compound. Among them, the positive control for CYP1A2 is Omeprazole; the positive control for CYP2B6 is Phenobarbital; the positive control for CYP3A4 is Rifampicin.

CYP1A2 [4] = experiment: Induction of CYP1A2 in frozen human hepatocytes; format: in vitro ADME; conditions: 72 h induction, concentration and readout not stated
Method: as §2, §3, §4

CYP3A4 [5] = experiment: Induction of CYP3A4 in frozen human hepatocytes; format: in vitro ADME; conditions: 72 h induction, concentration and readout not stated; for CYP3A4 Induction percentage relative to positive control (%): positive control Rifampicin
Method: as §2, §3, §4

T7 sequence (Q12809 whole entry): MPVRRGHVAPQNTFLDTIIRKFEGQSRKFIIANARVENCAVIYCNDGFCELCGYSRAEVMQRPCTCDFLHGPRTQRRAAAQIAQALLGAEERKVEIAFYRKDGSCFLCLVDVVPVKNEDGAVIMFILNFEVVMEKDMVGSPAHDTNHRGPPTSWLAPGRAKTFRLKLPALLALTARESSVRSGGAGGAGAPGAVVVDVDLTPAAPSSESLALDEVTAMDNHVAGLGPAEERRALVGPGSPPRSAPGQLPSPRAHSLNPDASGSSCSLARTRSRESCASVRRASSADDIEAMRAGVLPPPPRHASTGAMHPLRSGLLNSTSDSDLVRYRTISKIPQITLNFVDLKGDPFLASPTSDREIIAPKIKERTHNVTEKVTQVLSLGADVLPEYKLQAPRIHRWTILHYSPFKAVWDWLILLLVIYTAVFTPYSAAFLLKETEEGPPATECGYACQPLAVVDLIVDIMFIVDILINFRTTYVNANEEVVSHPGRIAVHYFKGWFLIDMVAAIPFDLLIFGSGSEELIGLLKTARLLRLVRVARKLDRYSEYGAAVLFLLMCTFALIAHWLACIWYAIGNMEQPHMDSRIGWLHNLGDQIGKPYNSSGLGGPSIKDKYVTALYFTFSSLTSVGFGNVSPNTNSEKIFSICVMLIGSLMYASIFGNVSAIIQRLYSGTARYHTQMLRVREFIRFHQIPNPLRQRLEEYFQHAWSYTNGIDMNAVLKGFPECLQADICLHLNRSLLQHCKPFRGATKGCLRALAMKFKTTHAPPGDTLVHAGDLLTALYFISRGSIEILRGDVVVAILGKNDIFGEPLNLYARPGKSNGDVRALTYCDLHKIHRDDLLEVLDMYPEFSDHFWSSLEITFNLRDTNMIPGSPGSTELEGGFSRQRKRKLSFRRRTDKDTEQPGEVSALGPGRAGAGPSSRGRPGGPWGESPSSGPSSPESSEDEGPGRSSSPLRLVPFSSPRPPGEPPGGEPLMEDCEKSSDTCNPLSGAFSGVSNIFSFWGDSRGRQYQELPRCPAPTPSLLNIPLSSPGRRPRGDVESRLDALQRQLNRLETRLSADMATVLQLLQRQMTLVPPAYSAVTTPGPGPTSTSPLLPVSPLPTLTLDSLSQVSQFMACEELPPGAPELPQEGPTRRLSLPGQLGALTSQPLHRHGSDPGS
T5 sequence (P08684 whole entry): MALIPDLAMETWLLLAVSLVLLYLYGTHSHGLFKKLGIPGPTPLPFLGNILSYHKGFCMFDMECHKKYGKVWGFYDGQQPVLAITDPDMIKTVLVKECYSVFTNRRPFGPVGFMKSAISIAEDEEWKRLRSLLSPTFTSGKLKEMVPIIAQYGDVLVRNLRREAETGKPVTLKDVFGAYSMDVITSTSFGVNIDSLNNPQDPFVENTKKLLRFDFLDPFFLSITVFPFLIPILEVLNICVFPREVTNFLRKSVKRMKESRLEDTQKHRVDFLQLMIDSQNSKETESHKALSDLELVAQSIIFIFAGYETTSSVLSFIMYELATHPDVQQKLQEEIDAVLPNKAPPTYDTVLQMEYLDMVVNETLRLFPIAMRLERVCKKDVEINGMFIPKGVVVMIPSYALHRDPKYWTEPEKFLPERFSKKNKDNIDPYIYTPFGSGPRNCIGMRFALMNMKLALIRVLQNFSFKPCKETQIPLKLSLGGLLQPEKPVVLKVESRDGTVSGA
T3 sequence (P33261 whole entry): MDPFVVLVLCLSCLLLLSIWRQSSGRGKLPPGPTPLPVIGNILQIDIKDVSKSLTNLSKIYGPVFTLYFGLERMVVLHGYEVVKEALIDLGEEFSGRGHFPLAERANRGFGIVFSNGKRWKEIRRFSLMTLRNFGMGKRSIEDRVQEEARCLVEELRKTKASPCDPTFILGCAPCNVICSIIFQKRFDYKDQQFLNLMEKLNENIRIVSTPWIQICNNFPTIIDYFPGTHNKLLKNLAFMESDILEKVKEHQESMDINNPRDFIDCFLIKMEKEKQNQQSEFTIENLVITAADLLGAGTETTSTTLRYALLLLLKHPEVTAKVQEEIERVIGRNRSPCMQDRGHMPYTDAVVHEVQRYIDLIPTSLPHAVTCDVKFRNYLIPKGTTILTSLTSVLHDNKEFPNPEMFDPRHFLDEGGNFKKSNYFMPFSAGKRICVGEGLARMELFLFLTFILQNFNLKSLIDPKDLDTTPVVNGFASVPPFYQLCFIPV
T6 sequence (P10635 whole entry): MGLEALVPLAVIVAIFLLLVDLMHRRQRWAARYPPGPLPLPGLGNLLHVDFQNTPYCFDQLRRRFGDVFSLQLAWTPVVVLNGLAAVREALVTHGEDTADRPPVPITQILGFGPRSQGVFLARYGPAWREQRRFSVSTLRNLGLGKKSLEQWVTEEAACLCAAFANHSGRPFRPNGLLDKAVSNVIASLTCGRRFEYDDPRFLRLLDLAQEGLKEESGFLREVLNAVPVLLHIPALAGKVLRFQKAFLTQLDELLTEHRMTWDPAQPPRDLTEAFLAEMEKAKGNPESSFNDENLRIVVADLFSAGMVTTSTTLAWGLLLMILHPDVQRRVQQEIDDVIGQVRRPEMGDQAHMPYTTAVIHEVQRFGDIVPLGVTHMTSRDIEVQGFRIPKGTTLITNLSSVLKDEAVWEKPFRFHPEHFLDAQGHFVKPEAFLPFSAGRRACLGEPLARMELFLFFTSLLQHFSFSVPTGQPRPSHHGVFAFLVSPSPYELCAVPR

Structure (SMILES)	CC50 at 24 h (in vitro) [µM]	EC50 (hTLR7) [µM]	EC50 (hTLR8) [µM]	inhibition at 10 µM (CYP2C19) [%]	inhibition at 10 µM (CYP1A2 [1]) [%]	CC50 at 24 h [2] [µM]	inhibition at 10 µM (CYP3A4 [3]; probe Midazolam, substrate Midazolam, read-out: Relative inhibition rate (%) CYP3A4 (Midazolam)) [%]	inhibition at 10 µM (CYP3A4 [3]; probe Testosterone, substrate Testosterone, read-out: Relative inhibition rate (%) CYP3A4 (Testosterone)) [%]	inhibition at 10 µM (CYP2D6) [%]	IC50 (hERG channel) [µM]	CYP2B6 Induction fold relative to blank control (CYP2B6)	CYP2B6 Induction percentage relative to positive control (%) (CYP2B6)	CYP1A2 Induction fold relative to blank control (CYP1A2 [4])	CYP3A4 Induction fold relative to blank control (CYP3A4 [5])	CYP3A4 Induction percentage relative to positive control (%) (CYP3A4 [5])
CCCC[C@](C)(CO)Nc1nc(N)nc2cc(-c3cc(=O)n(C)cc3CN3CCNCC3)cnc12 [Example 5]	> 100	> 100	2.72	–	–	–	–	–	–	–	–	–	–	–	–
CCCC[C@](C)(CO)Nc1nc(N)nc2cc(-c3cc(=O)n(C)cc3CN(C)CCO)ccc12 [Example 64, (R)-4-(2-Amino-4-((1-hydroxy-2-methylhexan-2-yl)amino)quinazolin-7-yl)-5-(((2-hydroxyethyl)(methyl)amino)methyl)-1-methylpyridin-2(1H)-one]	–	> 100	0.077	2.4	8.9	> 100	17.6	8.8	13.8	–	–	–	–	–	–
C=CCCN(C)Cc1c[nH]c(=O)cc1-c1cnc2c(N[C@@](C)(CO)CCCC)nc(N)nc2c1 [Example 9, (R)-4-(2-Amino-4-((1-hydroxy-2-methylhexan-2-yl)amino)pyrido[3,2-d]pyrimidin-7-yl)-5-((but-3-en-1-yl(methyl)amino)methyl)pyridin-2(1H)-one]	–	31.8	0.02	–	–	> 100	–	–	–	24.7	1.3	4.2	1.0	4.2	2.0
CCCC[C@](C)(CO)Nc1nc(N)nc2cc(F)cnc12 [Comparative compounds, (R)-2-((2-amino-7-fluoropyrido[3,2-d]pyrimidin-4-yl)amino)-2-methylhexan-1-ol, reference compound]	–	–	–	–	–	–	–	–	–	3.3	3.6	24.5	2.6	9.5	15.8
